One block for each compound: values may come before it.
Experiment: solvent given as SMILES

Compound: COc1cc(/C=C2/SC(=O)NC2=O)cc(OC)c1O
fluorescence lifetime (in C1CCCCC1): 0.941 ns | fluorescence lifetime (in C1COCCO1): 1.44 ns | fluorescence lifetime (in CC#N): 0.521 ns | fluorescence lifetime (in CN(C)C=O): 4.47 ns | fluorescence lifetime (in CO): 0.39 ns | fluorescence lifetime (in O): 0.34 ns | fluorescence lifetime (in OCC(O)CO): 4.92 ns | fluorescence lifetime (in OCCO): 2.25 ns

Compound: CN(C)c1ccc(/C=C/C=C/c2ccc(B(O)O)cc2)cc1
fluorescence lifetime (in C1CCCCC1): 0.621 ns

Compound: COc1ccc2ccc(O)cc2c1
fluorescence lifetime (in O): 8.33 ns

Compound: Cc1cn(C(F)(F)F)c(=O)[nH]c1=O
fluorescence lifetime (in CC#N): 0.0001 ns

Compound: c1ccc(-c2ccc(-c3ccc(-c4cc(-c5ccc(-c6ccc(-c7ccccc7)cc6)cc5)cc(-c5ccc(-c6ccc(-c7ccccc7)cc6)cc5)c4)cc3)cc2)cc1
fluorescence lifetime (in C1COCCO1): 1.05 ns

Compound: CN(C)c1ccc2cc3ccc(N(C)C)cc3nc2c1
fluorescence lifetime (in O): 2 ns

Compound: COc1ccc2c(=O)c3c([nH]c2c1)-c1ccccc1NC3(C)C
fluorescence lifetime (in C1CCOC1): 8.25 ns | fluorescence lifetime (in CC#N): 9.16 ns | fluorescence lifetime (in CCCCO): 10.2 ns | fluorescence lifetime (in CCCO): 10.1 ns | fluorescence lifetime (in CCO): 9.74 ns | fluorescence lifetime (in CCOC(C)=O): 8.04 ns | fluorescence lifetime (in CN(C)C=O): 10.5 ns | fluorescence lifetime (in CO): 9.35 ns | fluorescence lifetime (in CS(C)=O): 11.4 ns | fluorescence lifetime (in Cc1ccccc1): 7.24 ns | fluorescence lifetime (in ClC(Cl)(Cl)Cl): 5.08 ns | fluorescence lifetime (in ClCCl): 9.46 ns | fluorescence lifetime (in O): 7.42 ns | fluorescence lifetime (in c1ccccc1): 7.52 ns

Compound: O=C(O)c1cccc2c(=O)c3ccccc3[nH]c12
fluorescence lifetime (in O): 3.1 ns

Compound: Cc1ccc(C2=C3C=CC(Cl)=[N+]3[B-](F)(F)n3c(Cl)ccc32)cc1
fluorescence lifetime (in C1CCCCC1): 2.1 ns | fluorescence lifetime (in C1CCOC1): 2.1 ns | fluorescence lifetime (in CC#N): 1.87 ns | fluorescence lifetime (in CCOC(C)=O): 2.07 ns | fluorescence lifetime (in CO): 1.88 ns | fluorescence lifetime (in Cc1ccccc1): 3.26 ns | fluorescence lifetime (in ClC(Cl)Cl): 3.66 ns

Compound: N#Cc1cc2ccc([O-])cc2oc1=O
fluorescence lifetime (in O): 3.96 ns

Compound: CCCCCCCC[n+]1ccc(-c2cc[n+](CCCCCCCC)cc2)cc1
fluorescence lifetime (in CC#N): 1 ns

Compound: CN(C)c1ccc(N(C)C)cc1
fluorescence lifetime (in C1CCCCC1): 6.1 ns

Compound: COc1ccc(-c2ccc(OC)cc2)cc1
fluorescence lifetime (in C1CCCCC1): 17.7 ns

Compound: COc1cc2c(cc1/C=C/C1=CC(=C(C#N)C#N)CC(C)(C)C1)c1ccccc1n2C
fluorescence lifetime (in C1CCOC1): 6.48 ns | fluorescence lifetime (in CC#N): 10.4 ns | fluorescence lifetime (in CCO): 7.78 ns | fluorescence lifetime (in CCOC(C)=O): 6.38 ns | fluorescence lifetime (in CN(C)C=O): 9.14 ns | fluorescence lifetime (in CS(C)=O): 8.27 ns | fluorescence lifetime (in Cc1ccccc1): 8.3 ns | fluorescence lifetime (in ClC(Cl)Cl): 9.43 ns | fluorescence lifetime (in ClCCl): 6.7 ns

Compound: COC(=O)c1cc(=O)n(C)c2cc(-c3cc(OC)c(OC)c(OC)c3)sc12
fluorescence lifetime (in ClCCl): 1.36 ns

Compound: CN1C(=CC2=C([O-])C(=CC3=[N+](C)c4ccccc4C3(C)C)C2=O)C(C)(C)c2cc(Cl)ccc21
fluorescence lifetime (in CO): 0.2 ns | fluorescence lifetime (in ClC(Cl)Cl): 1.05 ns

Compound: N#C/C(=C\c1ccc(C=C(c2ccccc2)c2ccccc2)cc1)c1ccccc1
fluorescence lifetime (in C1CCOC1): 1 ns

Compound: COC(=O)C(NC(=O)OC(C)(C)C)c1ccc2oc(-c3ccc(F)cc3)nc2c1 (stereo unspecified)
fluorescence lifetime (in CC1CCCCC1): 1.23 ns | fluorescence lifetime (in CC#N): 1.47 ns | fluorescence lifetime (in CO): 1.53 ns

Compound: COC(=O)C(NC(=O)OC(C)(C)C)c1ccc2oc(-c3cc(OC)c(OC)cc3OC)nc2c1 (stereo unspecified)
fluorescence lifetime (in CC1CCCCC1): 1.27 ns | fluorescence lifetime (in CC#N): 1.78 ns | fluorescence lifetime (in CO): 2.03 ns

Compound: c1ccc(/C(=C(\c2ccccc2)c2cc(-c3ccc(-c4ccccc4)cc3)ccc2-c2ccc(-c3ccccc3)cc2)c2cc(-c3ccc(-c4ccccc4)cc3)ccc2-c2ccc(-c3ccccc3)cc2)cc1
fluorescence lifetime (in C1CCOC1): 8.2 ns

Compound: COc1ccc2c(c1)c1cc(OC)ccc1n2-c1cccc(-n2c3ccc(OC)cc3c3cc(OC)ccc32)c1C#N
fluorescence lifetime (in Cc1ccccc1): 13 ns | fluorescence lifetime (in O=P(c1ccccc1)(c1ccccc1)c1ccccc1Oc1ccccc1P(=O)(c1ccccc1)c1ccccc1): 12.8 ns

Compound: COC(=O)C(Cc1ccc2oc(-c3ccc(N(C)C)cc3)nc2c1)NC(=O)OC(C)(C)C (stereo unspecified)
fluorescence lifetime (in C1CCCCC1): 1.02 ns | fluorescence lifetime (in C1CCOC1): 1.21 ns | fluorescence lifetime (in C1COCCO1): 1.21 ns | fluorescence lifetime (in CC1CCCO1): 1.15 ns | fluorescence lifetime (in CC1COC(=O)O1): 1.41 ns | fluorescence lifetime (in CC#N): 1.32 ns | fluorescence lifetime (in CC(C)=O): 1.26 ns | fluorescence lifetime (in CC(C)CC(C)(C)C): 1.02 ns | fluorescence lifetime (in CC(C)CO): 1.29 ns | fluorescence lifetime (in CC(C)O): 1.3 ns | fluorescence lifetime (in CC(C)OC(C)C): 1.2 ns | fluorescence lifetime (in CC(O)CO): 1.32 ns | fluorescence lifetime (in CCC(C)CC): 1 ns | fluorescence lifetime (in CCCCC): 1.12 ns | fluorescence lifetime (in CCCCCC): 1.04 ns | fluorescence lifetime (in CCCCCCCCC): 1.08 ns | fluorescence lifetime (in CCCCCCCCCC): 1.09 ns | fluorescence lifetime (in CCCCCCCO): 1.3 ns | fluorescence lifetime (in CCCCCCO): 1.32 ns | fluorescence lifetime (in CCCCCO): 1.25 ns | fluorescence lifetime (in CCCCO): 1.29 ns | fluorescence lifetime (in CCO): 1.35 ns | fluorescence lifetime (in CCOC(C)=O): 1.19 ns | fluorescence lifetime (in CCOCC): 1.24 ns | fluorescence lifetime (in CN(C)C=O): 1.28 ns | fluorescence lifetime (in CO): 1.26 ns | fluorescence lifetime (in COCCOC): 0.88 ns | fluorescence lifetime (in CS(C)=O): 1.26 ns | fluorescence lifetime (in Cc1ccccc1): 1.04 ns | fluorescence lifetime (in Cc1ccccc1C): 1.07 ns | fluorescence lifetime (in ClC(Cl)Cl): 0.79 ns | fluorescence lifetime (in ClCCl): 1.23 ns | fluorescence lifetime (in NC=O): 1.14 ns | fluorescence lifetime (in OC1CCCCC1): 1.28 ns | fluorescence lifetime (in OCCO): 1.13 ns | fluorescence lifetime (in c1ccccc1): 1.08 ns

Compound: Nc1ccccn1
fluorescence lifetime (in C1CCCCC1): 24.2 ns | fluorescence lifetime (in CC#N): 5 ns | fluorescence lifetime (in CCO): 5.1 ns | fluorescence lifetime (in CCOCC): 10.8 ns | fluorescence lifetime (in O): 24.4 ns

Compound: c1cnc2c(c1)c1nc(-c3ccc(-c4nc5c6cccnc6c6ncccc6c5[nH]4)cc3)[nH]c1c1cccnc12
fluorescence lifetime (in CS(C)=O): 1.36 ns

Compound: CCCCC(CC)CN1C(=O)c2cc(Oc3ccc(OC)cc3)c3c4c(Cl)cc5c6c(cc(Cl)c(c7c(Oc8ccc(OC)cc8)cc(c2c37)C1=O)c64)C(=O)N(c1c(C(C)C)cccc1C(C)C)C5=O (stereo unspecified)
fluorescence lifetime (in Cc1ccccc1): 0.56 ns

Compound: CC(C)[Si](C#Cc1cc2c(C#C[Si](C(C)C)(C(C)C)C(C)C)c(C#C[Si](C(C)C)(C(C)C)C(C)C)c3cc(C#C[Si](C(C)C)(C(C)C)C(C)C)cc4c(C#C[Si](C(C)C)(C(C)C)C(C)C)c(C#C[Si](C(C)C)(C(C)C)C(C)C)c(c1)c2c34)(C(C)C)C(C)C
fluorescence lifetime (in ClCCl): 14.1 ns

Compound: CN(C)c1ccc(C(=Cc2ccc(C=O)cc2)c2ccc(N(C)C)cc2)cc1
fluorescence lifetime (in C1CCOC1): 7 ns

Compound: F[B-]1(F)OC(c2ccccc2)=Cc2cc3[n+](c[n+]21)[B-](F)(F)OC(c1ccccc1)=C3
fluorescence lifetime (in ClCCl): 1.4 ns

Compound: CN1C(=CC=Cc2nc3nc4ccccc4nc3s2)C(C)(C)c2ccccc21
fluorescence lifetime (in CCCCCCC(C)O): 1.04 ns | fluorescence lifetime (in CCOC(C)=O): 0.92 ns | fluorescence lifetime (in CO): 0.18 ns | fluorescence lifetime (in CS(C)=O): 1.04 ns | fluorescence lifetime (in Cc1ccccc1): 0.11 ns | fluorescence lifetime (in ClC(Cl)Cl): 1.08 ns | fluorescence lifetime (in ClCCl): 0.99 ns

Compound: COc1ccc(-c2c3ccc([nH]3)c3nc(c(-c4ccc(C#N)cc4)c4ccc([nH]4)c4ccc([nH]4)c(-c4ccc(OC)cc4)c4ccc2o4)C=C3)cc1
fluorescence lifetime (in C1CCOC1): 5.6 ns | fluorescence lifetime (in Cc1ccccc1): 5.65 ns | fluorescence lifetime (in c1ccccc1): 4.88 ns

Compound: NCc1ccc2ccc3cccc4ccc1c2c34
fluorescence lifetime (in CC#N): 232 ns | fluorescence lifetime (in CO): 119 ns | fluorescence lifetime (in ClC(Cl)Cl): 38 ns

Further lines, results first:

fluorescence lifetime (in CCO): 5.39 ns
Compound: C[n+]1c2c(c(-c3ccccc3)c3c1CCCC3)CCCC2

fluorescence lifetime (in ClC(Cl)Cl): 2.1 ns
Compound: Cc1ccc(C(=O)/N=c2\oc3cccc4c5c(-c6ccccc6)oc6cccc(c(c2-c2ccccc2)c34)c65)cc1

fluorescence lifetime (in CCOC(C)=O): 3.5 ns | fluorescence lifetime (in CS(C)=O): 4 ns
Compound: COc1nc(Cl)nc(Nc2ccc3c4cccc5cccc(c6cccc2c63)c54)n1

fluorescence lifetime (in O): 10.9 ns
Compound: CCOC(=O)CCCCCn1c2ccccc2c(=O)c2cc(N)ccc21

fluorescence lifetime (in ClCCl): 9 ns
Compound: COc1ccc(N(c2ccccc2)c2ccc3ccc4c(N(c5ccccc5)c5ccc(OC)cc5)ccc5ccc2c3c54)cc1

fluorescence lifetime (in ClC(Cl)Cl): 8.5 ns
Compound: CCCCCCCCCCCCSc1cc2c3c(ccc4c5c(SCCCCCCCCCCCC)cc6c7c(ccc(c1c34)c75)C(=O)N(C1CCCCC1)C6=O)C(=O)N(C1CCCCC1)C2=O

fluorescence lifetime (in CCCCCC): 54.7 ns | fluorescence lifetime (in CO): 64.5 ns | fluorescence lifetime (in ClCCl): 37.6 ns
Compound: Cc1ccc2ccc3c(C)ccc4ccc1c2c43

fluorescence lifetime (in ClCCl): 1.2 ns
Compound: c1ccc(N(c2ccccc2)c2ccc(-c3ccc4c(c3)C3(c5ccccc5Sc5ccccc53)c3cc(-c5ccc(N(c6ccccc6)c6ccccc6)cc5)ccc3-4)cc2)cc1

fluorescence lifetime (in CCOC(C)=O): 3.8 ns | fluorescence lifetime (in CS(C)=O): 4.5 ns
Compound: CC(=O)Nc1ccc2c3cccc4cccc(c5cccc1c52)c43

fluorescence lifetime (in CN(C)C=O): 4.1 ns
Compound: NCCCCCCCCCCCCN1C(=O)c2ccc3c4ccc5c6c(ccc(c7ccc(c2c37)C1=O)c64)C(=O)N(CCCCCCCCCCCCN)C5=O

fluorescence lifetime (in ClCCl): 1.5 ns
Compound: COC(=O)c1cc(=O)n(C)c2cc(-c3ccc(N4CCN(C)CC4)cc3)sc12

fluorescence lifetime (in ClCCl): 0.5 ns
Compound: CC1=C(c2ccc(N(C)C)cc2)C(C)=[N+]2C1=C(c1c(-c3ccccn3)nc3ccccn13)c1c(C)cc(C)n1[B-]2(F)F

fluorescence lifetime (in ClCCl): 1.01 ns
Compound: CN(C)c1ccc(-c2cc3c(s2)c(C(=O)c2ccccc2)cc(=O)n3Cc2ccccc2)cc1

fluorescence lifetime (in ClCCl): 5.4 ns
Compound: CCCCCCOc1cc(C=C2C(=O)c3ccccc3C2=O)c(OCCCCCC)cc1C=C1C(=O)c2ccccc2C1=O

fluorescence lifetime (in CCCCCC): 5 ns
Compound: Cc1cc(C)c(B(c2c(C)cc(C)cc2C)c2cc3cccc4c(B(c5c(C)cc(C)cc5C)c5c(C)cc(C)cc5C)cc5cccc2c5c34)c(C)c1

fluorescence lifetime (in c1cc(-c2cccc(-n3c4ccccc4c4ccccc43)c2)cc(-n2c3ccccc3c3ccccc32)c1): 58 ns
Compound: CC1(C)c2ccccc2N(c2ccc3c(c2)c2cc(N4c5ccccc5C(C)(C)c5ccccc54)ccc2c2nc4ccccc4nc32)c2ccccc21

fluorescence lifetime (in CCCO): 0.15 ns
Compound: CCOC(=O)c1ccc2c(c1)[nH]c1c3ccc(C(=O)OCC)cc3[se]c21

fluorescence lifetime (in ClC(Cl)Cl): 6.4 ns
Compound: CC(C)(C)c1ccc(Oc2cc3c4c(cc(Oc5ccc(C(C)(C)C)cc5)c5c6c(Oc7ccc(C(C)(C)C)cc7)cc7c8c(cc(Oc9ccc(C(C)(C)C)cc9)c(c2c45)c86)C(=O)OC7=O)C(=O)OC3=O)cc1

fluorescence lifetime (in CO): 0.912 ns
Compound: CC1(C)C(/C=C/C2=C(Oc3ccc(CCN=C=S)cc3Br)C(=C/C=C3/N(CCCS(=O)(=O)[O-])c4ccccc4C3(C)C)/CCC2)=[N+](CCCS(=O)(=O)[O-])c2ccccc21

fluorescence lifetime (in CC1CCCCC1): 0.64 ns | fluorescence lifetime (in CC#N): 0.3 ns | fluorescence lifetime (in CO): 0.027 ns
Compound: COC(=O)C(NC(=O)OC(C)(C)C)c1ccc2oc(-c3ccc(OC(=O)c4ccccc4)cc3O)nc2c1 (stereo unspecified)

Reference: the Deep4Chem optical property database
